The values below come from US20100087493A1, “METHOD FOR IMPROVING THE PHARMACOKINETICS OF DRUGS METABOLIZED BY UGT2B10” (priority 2007, published 2010).

Read-outs that look alike come from different tables or passages of the source.

By IC50 is commonly meant the concentration that inhibits the measured activity by half. As usually defined, the Km is the substrate concentration at which the rate is half of its maximum.

For one series, the target named is UGT1A4 (Homo sapiens, UniProt P22310). As to the kind of experiment: biochemical. The protocol: (§1) For the purpose of identifying a compound which acts as UGT2B10 modulator, recombinant cells that express UGT2B10 are prepared as described above. The cells expressing UGT2B10 are suspended in water and homogenized using known procedures. The incubation mixture is prepared by mixing recombinant UGT2B10 homogenate and uridine-5-diphosphoglucuronic acid (UDP-GA) as a glucuronic acid source in a suitable buffer such as phosphate buffer pH 7.4. […] The reaction is terminated as described above. Following centrifugation, the supernatants are analyzed and quantified for the presence of glucuronidated derivative of the substrate as described above. The UGT2B10 enzyme activity towards the substrate, in the absence and presence of the modulator, is calculated as the amount of glucuronide formed (pmol) divided by incubation time (min) and protein amount (mg/incubation). The effect of the modulator, inhibition or activation, on the enzyme activity towards the substrate is calculated as % enzyme activity at each modulator concentration compared to the enzyme activity measured in the absence of the modulator. IC50, inhibitor concentration that inhibits the activity by 50%, is used as the measure of the inhibitory effect, and the activation effect is calculated as % increase in enzyme activity. […]
(§2) The samples were analyzed by high-performance liquid chromatography-mass spectrometry (HPLC-MS).

The target of series [1] is T1, Recombinant human UGT2B10 (Homo sapiens, UniProt P36537).
T1 sequence (P36537 24-528): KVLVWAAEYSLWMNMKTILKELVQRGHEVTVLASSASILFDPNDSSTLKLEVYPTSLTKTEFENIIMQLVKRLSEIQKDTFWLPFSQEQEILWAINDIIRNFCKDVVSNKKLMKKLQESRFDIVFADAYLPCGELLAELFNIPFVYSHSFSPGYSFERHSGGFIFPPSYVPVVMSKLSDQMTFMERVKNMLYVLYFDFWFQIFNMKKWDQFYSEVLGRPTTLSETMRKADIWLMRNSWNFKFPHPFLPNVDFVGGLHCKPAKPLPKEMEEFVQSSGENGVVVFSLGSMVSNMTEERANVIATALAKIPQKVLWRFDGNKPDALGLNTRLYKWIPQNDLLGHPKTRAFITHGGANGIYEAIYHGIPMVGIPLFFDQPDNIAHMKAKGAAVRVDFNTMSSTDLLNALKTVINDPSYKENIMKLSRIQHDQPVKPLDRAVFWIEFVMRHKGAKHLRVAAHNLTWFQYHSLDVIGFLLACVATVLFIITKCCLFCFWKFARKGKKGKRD
The series can be described thus: biochemical. The protocol: as §1, §2

Series [2] deals with T1, Recombinant human UGT2B10. The protocol: For the purpose of identifying compounds which are directly metabolized by UGT2B10, recombinant cells that express UGT2B10 are prepared according to known methods. For example, recombinant UGT2B10 can be expressed in baculovirus-infected insect cells as described e.g. in Kurkela, M. et al., Journal of Biological Chemistry, 278(6), 3536-3544, 2003. The cells expressing UGT2B10 are suspended in water and homogenized using known procedures. Incubation mixture is prepared by mixing recombinant UGT2B10 homogenate and uridine-5-diphospho-glucuronic acid (UDP-GA) as a glucuronic acid source in a suitable buffer such as phosphate buffer pH 7.4. […] The reaction is terminated by protein precipitation, e.g. by addition of trifluoroacetic acid, or acetonitrile if the formed N-glucuronide is expected to be acid-labile, and cooling. Following centrifugation, the supernatants are analysed for the presence of glucuronidated derivative of the test compound, wherein any suitable analyzing method can be used. High pressure liquid chromatography followed by mass spectrometry is the preferred method. The glucuronides are quantified using authentic glucuronide standards or another suitable methods such as substrate depletion. The enzyme activity of UGT2B10 towards the tested compound is calculated as the amount of glucuronide formed (pmol) divided by incubation time (min) and protein amount (mg/incubation). Example 1 of the present application describes a procedure suitable for identifying compounds that are glucuronidated by UGT2B10.
Recombinant human UGT2B10 were produced in baculovirus-infected insect cells and used as cell homogenate after suspending the cells with water. The glucuronidation rates were determined by incubating the substrates, nicotine and cotinine, with the enzyme UGT2B10 using uridine-5′-diphosphoglucuronic acid (UDP-GA) as a cofactor. The reaction mixtures were incubated at +37° C. for 1-2 hours. The samples were analyzed by high-performance liquid chromatography-mass spectrometry (HPLC-MS). The formed glucuronides were quantified using authentic glucuronide standards. The enzyme activity of UGT2B10 towards the tested compound was calculated as pmol glucuronide formed divided by incubation time (min) and protein amount (mg/incubation).

Another series concerns the target T2, UGT2B10 versus UGT1A4 (Homo sapiens, UniProt P36537).
T2 construct: made in house; host or cells: baculovirus-infected insect cells (used as cell homogenate)
T2 sequence (P36537 24-528): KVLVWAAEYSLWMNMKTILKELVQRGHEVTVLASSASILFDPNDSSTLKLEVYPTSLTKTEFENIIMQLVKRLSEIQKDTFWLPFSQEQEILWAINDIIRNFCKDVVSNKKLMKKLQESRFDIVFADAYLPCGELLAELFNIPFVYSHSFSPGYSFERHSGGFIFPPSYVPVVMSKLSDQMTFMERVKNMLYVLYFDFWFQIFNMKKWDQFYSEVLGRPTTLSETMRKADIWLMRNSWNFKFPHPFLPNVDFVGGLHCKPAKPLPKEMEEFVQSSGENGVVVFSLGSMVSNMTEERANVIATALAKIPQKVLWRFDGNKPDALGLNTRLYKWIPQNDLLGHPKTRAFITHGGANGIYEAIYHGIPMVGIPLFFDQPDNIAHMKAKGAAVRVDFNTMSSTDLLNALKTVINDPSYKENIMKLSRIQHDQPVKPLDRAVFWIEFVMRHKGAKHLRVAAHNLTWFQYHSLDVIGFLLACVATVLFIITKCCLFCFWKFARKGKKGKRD
The series can be described thus: Km of nicotine glucuronidation, UGT2B10. Type of series: in vitro ADME. Particulars: read-out: Km for UGT2B10 fold less compared to UGT1A4 (selectivity). From the text: (§3) The reaction is terminated as described above. […] 1.1 (SPSS Inc., Chicago, Ill.).
(§4) 1.1 (SPSS Inc., Chicago, Ill.) software.

Another series is described as follows: in vitro. Particulars: human, human liver microsomes. The protocol: The reaction is terminated as described above.
The reaction mixtures were incubated at +37° C. for 1-2 hours. The samples were analyzed by high-performance liquid chromatography-mass spectrometry (HPLC-MS).

Substrate in series [3]: CN1CCCC1c1cccnc1
As to the kind of experiment: Km of nicotine glucuronidation, UGT1A4. In kind it is in vitro ADME, human. The following applies: other: nicotine glucuronidation, 0.002-2 mM, microsomal membranes; pH 7.4; 37.0 °C.
Excerpt: as §3, §4

Substrate in series [4]: CN1CCCC1c1cccnc1
The series can be described thus: Km of nicotine glucuronidation, UGT2B10. Type of series: in vitro ADME, human. The following applies: other: nicotine glucuronidation, 0.002-2 mM, cell homogenate; pH 7.4; 37.0 °C.
Excerpt: as §3, §4

For the molecule `Cc1cccc(C(C)c2cnc[nH]2)c1C` (stereo in doubt) [Levomedetomidine, (S)-4-[1-(2,3-dimethylphenyl)-ethyl]-3H-imidazole], the IC50 against UGT1A4 is over 1000 µM; in series [1], 13 µM.
For `CN1C(=O)CC[C@H]1c1cccnc1` [Cotinine, cotinine], the “substrate for UGT2B10” value in series [2] (human) is reported as “substrates for UGT2B10”. Moreover, the UGT2B10 activity in series [2] (human, 2 mM) came to 12.7 pmol/min/mg prot.
Take `CN1CCCC1c1cccnc1` (stereo not shown) [Nicotine, nicotine]: on UGT2B10 versus UGT1A4, the selectivity ratio worked out at 8. Also, the Km in the series “in vitro” came out at 330 µM. In series [2] (in vitro, 2 mM substrate concentration, cell homogenate), the UGT2B10 activity was 2.9 pmol/min/mg prot. Moreover, the “substrate for UGT2B10” value in series [2] (in vitro, cell homogenate) was “substrates for UGT2B10”.

B1: recombinant human UGT1A4 (Homo sapiens) (protein)
chain: GKVLVVPTDGSPWLSMREALRELHARGHQAVVLTPEVNMHIKEEKFFTLTAYAVPWTQKEFDRVTLGYTQGFFETEHLLKRYSRSMAIMNNVSLALHRCCVELLHNEALIRHLNATSFDVVLTDPVNLCGAVLAKYLSIPAVFFWRYIPCDLDFKGTQCPNPSSYIPKLLTTNSDHMTFLQRVKNMLYPLALSYICHTFSAPYASLASELFQREVSVVDLVSYASVWLFRGDFVMDYPRPIMPNMVFIGGINCANGKPLSQEFEAYINASGEHGIVVFSLGSMVSEIPEKKAMAIADALGKIPQTVLWRYTGTRPSNLANNTILVKWLPQNDLLGHPMTRAFITHAGSHGVYESICNGVPMVMMPLFGDQMDNAKRMETKGAGVTLNVLEMTSEDLENALKAVINDKSYKENIMRLSSLHKDRPVEPLDLAVFWVEFVMRHKGAPHLRPAAHDLTWYQYHSLDVIGFLLAVVLTVAFITFKCCAYGYRKCLGKKGRVKKAHKSKTH
notes: made in house; host or cells: baculovirus-infected insect cells (microsomal membranes isolated)
In the case of B1, the Km in series [3] is 2400 µM.

B2: Recombinant human UGT2B10 (Homo sapiens) (protein)
chain: KVLVWAAEYSLWMNMKTILKELVQRGHEVTVLASSASILFDPNDSSTLKLEVYPTSLTKTEFENIIMQLVKRLSEIQKDTFWLPFSQEQEILWAINDIIRNFCKDVVSNKKLMKKLQESRFDIVFADAYLPCGELLAELFNIPFVYSHSFSPGYSFERHSGGFIFPPSYVPVVMSKLSDQMTFMERVKNMLYVLYFDFWFQIFNMKKWDQFYSEVLGRPTTLSETMRKADIWLMRNSWNFKFPHPFLPNVDFVGGLHCKPAKPLPKEMEEFVQSSGENGVVVFSLGSMVSNMTEERANVIATALAKIPQKVLWRFDGNKPDALGLNTRLYKWIPQNDLLGHPKTRAFITHGGANGIYEAIYHGIPMVGIPLFFDQPDNIAHMKAKGAAVRVDFNTMSSTDLLNALKTVINDPSYKENIMKLSRIQHDQPVKPLDRAVFWIEFVMRHKGAKHLRVAAHNLTWFQYHSLDVIGFLLACVATVLFIITKCCLFCFWKFARKGKKGKRD
notes: made in house; host or cells: baculovirus-infected insect cells (used as cell homogenate)
Regarding B2, in series [4], the Km amounted to 290 µM.
